Results as given in the supplement of paper PMC4862054.

What was measured:
Details in all cases: incubation time: 72 h
Hs578T = test: normalised viability (% of control), CellTiter-Blue; higher = more viable cells (about 100 = DMSO control)
Summary of the method: (§1)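 Normalised viability is given for a single listed concentration of the series. In 384-well plates, breast cancer cell lines were incubated 72 h with compound, then read with CellTiter-Blue (2 h, 37 °C) at 560/590 nm. Per-plate scaling set vehicle to 100 and a positive kill control to 0, with Z'-factor quality control.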

MDA-MB-231 [1] = test: as above
Summary of the method: as §1

HCC1937 [2] = test: as above
Summary of the method: as §1

HDQ-P1 = test: as above
Summary of the method: as §1

MDA-MB-436 = test: as above
Summary of the method: as §1

CAL-120 [3] = test: as above
Summary of the method: as §1

CAL-148 [4] = test: as above
Summary of the method: as §1

HCC1599 [5] = test: as above
Summary of the method: as §1

MDA-MB-468 [6] = test: as above
Summary of the method: as §1

HCC1143 [7] = test: as above
Summary of the method: as §1

CAL-85-1 [8] = test: as above
Summary of the method: as §1

MDA-MB-231 [9] = test: drug sensitivity score (DSS), CellTiter-Blue viability (DSS (AUC-based score)); higher = stronger viability inhibition; extreme values may be limits of the assay
Protocol: (§2)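 DSRT with the CellTiter-Blue (resazurin reduction) viability readout, fluorescence 560/590 nm, 72 h incubation. Plates were normalised to DMSO and benzethonium chloride controls. DSS is computed from the area under the fitted dose-response curve (5 or 9 concentrations).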

CAL-51 = test: as above
Protocol: as §2

HCC1937 [10] = test: as above
Protocol: as §2

MFM-223 = test: as above
Protocol: as §2

CAL-120 [11] = test: as above
Protocol: as §2

CAL-148 [12] = test: as above
Protocol: as §2

HCC1599 [13] = test: as above
Protocol: as §2

MDA-MB-468 [14] = test: as above
Protocol: as §2

BT-474 = test: as above
Protocol: as §2

BT-549 = test: as above
Protocol: as §2

DU-4475 = test: as above
Protocol: as §2

MDA-MB-453 = test: as above
Protocol: as §2

HCC1143 [15] = test: as above
Protocol: as §2

CAL-85-1 [16] = test: as above
Protocol: as §2

CC(C)C[C@@H](C(=O)N[C@H](C(=O)OC1CCCC1)c1ccccc1)[C@H](O)C(=O)NO [Tosedostat]
normalised viability [%]
Details | 3 nM | 10 nM | 30 nM | 100 nM | 1000 nM | 10000 nM
CAL-85-1 [8] | 104 | – | 97.8 | 90.8 | – | –
CAL-120 [3] | – | 82.4 | – | – | 65.4 | 55
CAL-148 [4] | 100 | – | 96.3 | 81.2 | – | –
HCC1143 [7] | – | 86.3 | – | – | 63.8 | 61.1
HCC1599 [5] | – | 96.5 | – | – | 81.6 | 106
HCC1937 [2] | – | 83.6 | – | – | 36.8 | 44.5
HDQ-P1 | 116 | – | 100 | 111 | – | –
Hs578T | – | 96.9 | – | – | 86 | 70
MDA-MB-231 [1] | – | 105 | – | – | 53.9 | 47.1
MDA-MB-436 | – | 92.4 | – | – | 73.1 | 75.3
MDA-MB-468 [6] | – | 91.5 | – | – | 55.5 | 54.2

Details | drug sensitivity score
BT-474 | 0
BT-549 | 11.3
CAL-51 | 4.1
CAL-85-1 [16] | 4.66
CAL-120 [11] | 12.7
CAL-148 [12] | 7.49
DU-4475 | 13.4
HCC1143 [15] | 7.29
HCC1599 [13] | 0
HCC1937 [10] | 14.9
MDA-MB-231 [9] | 12.5
MDA-MB-453 | 15.8
MDA-MB-468 [14] | 13.2
MFM-223 | 8.63

CN(C)CCOc1ccc(/C(=C(/CCCl)c2ccccc2)c2ccccc2)cc1 [Toremifene]
normalised viability [%]
Details | 3 nM | 10 nM | 30 nM | 100 nM | 1000 nM | 10000 nM
CAL-85-1 [8] | 99.2 | – | 92.9 | 95.8 | – | –
CAL-120 [3] | – | 85.2 | – | – | 96.1 | 79.1
CAL-148 [4] | 94 | – | 97.6 | 108 | – | –
HCC1143 [7] | – | 92.5 | – | – | 97.3 | 102
HCC1599 [5] | – | 127 | – | – | 97.5 | 89.6
HCC1937 [2] | – | 129 | – | – | 93.1 | 114
HDQ-P1 | 108 | – | 109 | 113 | – | –
Hs578T | – | 122 | – | – | 109 | 94.6
MDA-MB-231 [1] | – | 95.8 | – | – | 101 | 108
MDA-MB-436 | – | 99 | – | – | 96.3 | 71.1
MDA-MB-468 [6] | – | 104 | – | – | 109 | 17.9

Details | drug sensitivity score
BT-474 | 0
BT-549 | 0
CAL-51 | 0
CAL-85-1 [16] | 0
CAL-120 [11] | 0
CAL-148 [12] | 0
DU-4475 | 0
HCC1143 [15] | 0
HCC1599 [13] | 0
HCC1937 [10] | 0
MDA-MB-231 [9] | 0
MDA-MB-453 | 1.86
MDA-MB-468 [14] | 2.87
MFM-223 | 0
